What is called inhibition is the change of the read-out against control, counted positive when it falls. One may read the % Inhibition as the drop in the measured response relative to a control, in per cent.

Each structure is given as a SMILES string.

This is an account of results in patent publication US6500853B1, “Inhibitors of phospholipase enzymes” (Genetics Institute, LLC, priority 1998, dated 2002).

The test addresses T1, cPLA2 (Homo sapiens, UniProt P47712).
T1 sequence (P47712 1-749): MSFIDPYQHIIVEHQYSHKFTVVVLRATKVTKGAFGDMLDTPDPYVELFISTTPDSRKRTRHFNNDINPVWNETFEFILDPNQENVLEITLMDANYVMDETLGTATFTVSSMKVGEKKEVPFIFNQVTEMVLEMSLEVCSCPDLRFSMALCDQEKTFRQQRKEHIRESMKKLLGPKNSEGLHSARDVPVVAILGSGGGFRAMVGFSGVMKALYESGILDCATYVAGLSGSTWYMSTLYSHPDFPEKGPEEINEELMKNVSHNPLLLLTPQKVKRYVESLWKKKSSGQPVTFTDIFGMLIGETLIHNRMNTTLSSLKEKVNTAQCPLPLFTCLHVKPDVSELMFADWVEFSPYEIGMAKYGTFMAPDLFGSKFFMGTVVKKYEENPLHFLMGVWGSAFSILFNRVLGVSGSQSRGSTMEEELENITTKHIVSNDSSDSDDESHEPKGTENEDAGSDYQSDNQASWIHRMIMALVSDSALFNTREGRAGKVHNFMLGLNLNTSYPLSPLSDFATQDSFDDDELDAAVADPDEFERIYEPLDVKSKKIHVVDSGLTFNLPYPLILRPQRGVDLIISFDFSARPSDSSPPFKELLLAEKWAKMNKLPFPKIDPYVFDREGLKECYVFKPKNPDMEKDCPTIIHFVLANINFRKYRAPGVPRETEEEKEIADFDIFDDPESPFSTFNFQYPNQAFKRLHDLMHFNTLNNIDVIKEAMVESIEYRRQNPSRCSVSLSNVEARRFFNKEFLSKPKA
Put plainly: Coumarin Assay (cPLA2 inhibition). The test is classed as biochemical. To be noted: for inhibition at 11 µM: CONCENTRATION 11 micromolar; for inhibition at 50 µM: CONCENTRATION 50 micromolar. How it is done:
Table I reports data for the compounds described in the examples above in cPLA2 inhibition assays (described below). In the data columns of Tables I and II, assay results are reported as a percent inhibition at the concentration specified.
7-hydroxycoumarinyl 6-heptenoate was used as a monomeric substrate for cPLA2 as reported previously (Huang, Z. et al., 1994, Nalytical Biochemistry 222, 110-115). Inhibitors were mixed with 200 μL assay buffer (80 mM Heped, pH 7.5, 1 mM EDTA) containing 60 μM 7-hydroxycoumarinyl 6-heptenoate. The reaction was initiated by adding 4 μg cPLA2 in 50 μL assay buffer. Hydrolysis of the 7-hydroxycounarimyl 6-heptenoate ester was monitored in a fluorometer by exciting at 360 nm and monitoring emission at 460 nm. Enzyme activity is proportional to the increase in emission at 460 nm per minute. In the presence of a cPLA2 inhibitor, the rate of increase is less. The percent inhibition for corresponding concentrations of compounds herein in this Coumarin assay are provided below in Table I.

`COc1cc(C(=O)NS(=O)(=O)Cc2ccccc2)ccc1Cc1cn(C(c2ccccc2)c2ccccc2)c2ccc(NC(=O)OC3CCCC3)cc12` [Example 31, cyclopentyl N-[1-benzhydryl-3-(4-{[(benzylsulfonyl)amino]carbonyl}-2-methoxybenzyl)-1H-indol-5-yl]carbamate]: the inhibition at 11 µM (read-out: PERCENT INHIBITION @) was found to be 50%. The inhibition at 18 µM (CONCENTRATION 18 micromolar, read-out: PERCENT INHIBITION @) was determined as 50%.
For the molecule `CCCn1cc(Cc2ccc(C(=O)NS(=O)(=O)c3ccccc3C)cc2OC)c2cc(NC(=O)OC3CCCC3)ccc21` [Example 20, Cyclopentyl N-{3-[2-methoxy-4-({[(2-methylphenyl)sulfonyl]amino}carbonyl)benzyl]-1-propyl-1H-indol-5-yl}carbamate], the inhibition at 25 µM (CONCENTRATION 25 micromolar, read-out: PERCENT INHIBITION @) amounted to 50%. For the same molecule, the inhibition at 32 µM (CONCENTRATION 32 micromolar, read-out: PERCENT INHIBITION @) is 50%.
On to `Cc1c(CCSc2ccc(C(=O)O)cc2)c2cc(Cl)ccc2n1C(c1ccccc1)c1ccccc1` [Example 146, 4-{[2-(1-benzhydryl-5-chloro-2-methyl-1H-indol-3-yl)ethyl]sulfany}benzoic acid], for which the “% Inhibition” value (Conc 1.6 uM) is reported as 50%.
For `COc1ccc(C(c2ccc(OC)cc2)n2cc(Cc3ccc(C(=O)O)cc3OC)c3ccc(Cl)cc32)cc1` [Example 134, ′4-({1-[bis(4-methoxyphenyl)methyl]-6-chloro-1H-indol-3-yl}methyl)-3-methoxybenzoic acid], the “PERCENT INHIBITION @” value (CONCENTRATION 0.8 micromolar) worked out at 50%.
Take `O=C(O)c1ccc(Cc2cn(C(c3ccccc3)c3ccccc3)c3cc(Cl)ccc23)c(O)c1` [Example 130, ′4-[(1-benzhydryl-6-chloro-1H-indol-3-yl)methyl]-3-hydroxybenzoic acid]: under “CONCENTRATION 2 micromolar”, the “PERCENT INHIBITION @” value was determined as 50%.
Take `Cc1c(CCS(=O)(=O)c2ccc(C(=O)O)cc2)c2ccccc2n1C(c1ccccc1)c1ccccc1` [Example 143, 4-{[2-(1-benzhydryl-2-methyl-1H-indol-3-yl)ethyl]sulfonyl}benzoic acid]: for the setting “Conc 3 uM, read-out: % Inhibition”, the inhibition at 3 µM was found to be 50%.
`COc1cc(C(=O)O)ccc1Cc1cn(C(c2ccccc2)c2ccccc2)c2cc(Cl)ccc12` [Example 137, ′4-[(1-benzhydryl-6-chloro-1H-indol-3-yl)methyl]-3-methoxybenzoic acid]: the “PERCENT INHIBITION @” value (CONCENTRATION 0.8 micromolar) was found to be 50%.
On to `O=C(O)c1ccc(OCCc2c(COC/C=C/c3ccccc3)n(C(c3ccccc3)c3ccccc3)c3ccc(Cl)cc23)cc1` [Example 164, 4-{2-[1-benzhydryl-5-chloro-2-({[(E)-3-phenyl-2-propenyl]oxy}methyl)-1H -indol-3-yl)ethoxy]benzoic acid], for which the inhibition at 3.5 µM (Conc 3.5 uM, read-out: % Inhibition) came to 50%.
With `COc1cc(C(=O)O)ccc1Cc1cn(Cc2ccc3ccccc3c2)c2ccc(NC(=O)OC3CCCC3)cc12` [Example 4, 4-{[5-{[(cyclopentyloxy)carbonyl]amino}-1-(2-naphthylmethyl)-1H-indol-3-yl]methyl}3-methoxybenzoic acid], the inhibition at 5 µM (CONCENTRATION 5 micromolar, read-out: PERCENT INHIBITION @) was found to be 50%. Moreover, the inhibition at 11 µM (read-out: PERCENT INHIBITION @) amounted to 50%.
In the case of `O=C(O)CCc1ccc(OCCc2c(COCc3ccc(F)cc3)n(C(c3ccccc3)c3ccccc3)c3ccc(Cl)cc23)cc1` [Example 165, 3-{4-[2-(1-benzhydryl-5-chloro-2-{[(4-fluorobenzyl)oxy]methyl}-1H-indol-3-yl)ethoxy]phenyl}propanoic acid], the inhibition at 0.8 µM (Conc 0.8 uM, read-out: % Inhibition) is 50%.
As for `O=C(O)COc1ccc(Cc2cn(C(c3ccccc3)c3ccccc3)c3cc(Cl)ccc23)c(Cl)c1` [Example 120, 2-{4-[(1-benzhydryl-6-chloro-1H-indol-3-yl)methyl]-3-chlorophenoxy}acetic acid], under “CONCENTRATION 1 micromolar, read-out: PERCENT INHIBITION @”, the inhibition at 1 µM turned out to be 50%.
Regarding `O=C(O)c1ccc(Cc2cn(C(c3ccccc3)c3ccccc3)c3cc(Cl)ccc23)c(OCCCO)c1` [Example 131, ′4-[(1-benzhydryl-6-chloro-1H-indol-3-yl)methyl]-3-(3-hydroxypropoxy)benzoic acid], the “PERCENT INHIBITION @” value (CONCENTRATION 0.6 micromolar) is reported as 50%.
With `Cc1c(CCS(=O)(=O)c2ccc(C(=O)O)cc2)c2c(Cl)c(Cl)ccc2n1C(c1ccccc1)c1ccccc1` [Example 141, 4-{[2-(1-benzhydryl-4,5-dichloro-2-methyl-1H-indol-3-yl)ethyl]sulfonyl}benzoic acid], the inhibition at 1.4 µM (Conc 1.4 uM, read-out: % Inhibition) is 50%.
As to `O=C(O)C(=O)c1cn(Cc2ccc(Cc3ccccc3)cc2)c2ccc(OCc3ccccc3)cc12` [Example 69, 2-[1-(4-benzylbenzyl)-5-(benzyloxy)-1H-indol-3-yl]-2-oxoacetic acid], the inhibition at 12.5 µM (CONCENTRATION 12.5 micromolar, read-out: PERCENT INHIBITION @) was found to be 50%.
For `COc1cc(C(=O)NS(=O)(=O)c2ccc(N3N=C(C)CC3=O)cc2)ccc1Cc1cn(C(c2ccccc2)c2ccccc2)c2ccc(NC(=O)OC3CCCC3)cc12` [Example 35, cyclopentyl N-(1-benzhydryl-3-{2-methoxy-4[({[4-(3-methyl-5-oxo-4,5-dihydro-1H-pyrazol-1-yl)phenyl]sulfonyl}amino)carbonyl]benzyl}-1H-indol-5-yl)carbamate], under “CONCENTRATION 10 micromolar, read-out: PERCENT INHIBITION @”, the inhibition at 10 µM turned out to be 23%. In addition, for the setting “CONCENTRATION 20 micromolar, read-out: PERCENT INHIBITION @”, the inhibition at 20 µM was 42%. Besides, the inhibition at 41 µM (CONCENTRATION 41 micromolar, read-out: PERCENT INHIBITION @) is 50%.
For the molecule `O=C(O)CCc1ccc(OCCc2c(CO)n(C(c3ccccc3)c3ccccc3)c3ccc(Cl)cc23)cc1` [Example 167, 3-(4-{2-[1-benzhydryl-5-chloro-2-(hydroxymethyl)-1H-indol-3-yl]ethoxy}phenyl)propanoic acid], the inhibition at 1.3 µM (Conc 1.3 uM, read-out: % Inhibition) turned out to be 50%.
For `O=C1NC(=O)/C(=C\c2cn(CCCOc3cccc(Cc4ccccc4)c3)c3ccccc23)S1` [Example 82A, 5-((E)-{1-[3-(3-benzylphenoxy)propyl]-1H-indol-3-yl}methylidene)-1,3-thiazolane-2,4-dione], under “CONCENTRATION 46 micromolar, read-out: PERCENT INHIBITION @”, the inhibition at 46 µM is 50%. The inhibition at 50 µM (read-out: PERCENT INHIBITION @) amounted to 50%.
With `CCCn1cc(Cc2ccc(C(=O)O)cc2OC)c2cc(NC(=O)OC3CCCC3)ccc21` [Example 1, 4-[(5-{[(cyclopentyloxy)carbonyl]amino}-1-propyl-1H-indol-3-yl)methyl]-3-methoxybenzoic acid], the inhibition at 50 µM (read-out: PERCENT INHIBITION @) is 7%. The inhibition at 100 µM (CONCENTRATION 100 micromolar, read-out: PERCENT INHIBITION @) was 18%. Further, the inhibition at 170 µM (CONCENTRATION 170 micromolar, read-out: PERCENT INHIBITION @) was determined as 50%.
Turning to `O=C(Nc1cccc(C(=O)O)c1)C(=O)c1c(CSc2ccc3ccccc3c2)n(Cc2ccc(Cl)cc2)c2ccc(OCc3ccccc3)cc12` [Example 112, 3-[(2-{5-(benzyloxy)-1-(4-chlorobenzyl)-2-[(2-naphthylsulfanyl)methyl]-1H-indol-3-yl}-2-oxoacetyl)amino]benzoic acid], the inhibition at 2.5 µM (CONCENTRATION 2.5 micromolar, read-out: PERCENT INHIBITION @) was determined as 53%.
